Source: US11844801B2, “Oral compositions of MK2 pathway inhibitor for treatment of immune conditions” (priority 2020, dated 2023)

Tests used:
TNF-α = assay: R848 stimulated TNF-α production in human whole blood; assay type: cell-based; conditions: R848, 0.5 ug/mL, 5 hr
Description: Human whole blood assays were performed as described above with the exceptions listed below. […] Compounds were serially diluted in 100% DMSO (Sigma-Aldrich, D2650) followed by a 10× dilution into RPMI (Gibco, 11875). After the one-hour incubation with the compounds or vehicle, 2 μL of R848 (InvivoGen, tlrl-r848) in RPMI (Gibco, 11875) was added for a final concentration of 0.5 μg/mL to each well except for the no stimulus wells. After five hours of incubation with R848, plasma was harvested and assayed for TNF-α, IL-1β, IL-6 and IL-8 using Meso Scale Discovery Technology V-plex human cytokine kits according to the kit protocol.

[1] = Phase 2a RA study: Hand-Wrist MRI RAMRIS and CARLOS; assay type: in vivo, human; conditions: for Carlos Cartilage Loss, mean / RAMRIS Erosion Score, mean / RAMRIS Osteitis Score, mean / RAMRIS Synovitis Score, mean / Carlos Cartilage Loss, change from baseline, mean / RAMRIS Erosion Score, change from baseline, mean / RAMRIS Osteitis Score, change from baseline, mean / RAMRIS Synovitis Score, change from baseline, mean: n = 15
IL-17A = IL-17A production in CD4+ cells cultured under TH17 skewing conditions; assay type: cell-based, human
Description: CD4+ cells were cultured for 3 days under TH17 skewing conditions (anti-CD3, anti-CD28, anti-IL-4, anti-IFNγ, rIL-6, rIL-23, rTGFβ). On day 3, cells were harvested, washed, re-plated, and treated with compound or DMSO only. […] After 18-20 hours, supernatants were collected and assayed for IL-17A levels using MSD.

[2] = system: p-HSP27, TNF-α, IL-1β, IL-6 and IL-8; assay: Ex vivo LPS-stimulated p-HSP27 and cytokines in dosed healthy subjects, summary statements over several analytes; design: species or system human; conditions: SAD and MAD cohorts
Description: Blood samples of 10 mL were collected for PD analysis. For the SAD cohorts, blood was collected before dosing and 1, 12, and 24 hours after dosing. For the MAD cohorts, on day 1 blood was collected before the morning dose and 4 and 12 hours after the morning dose (prior to the evening dose); on day 7, blood was collected before the morning dose and 4 and 12 hours after the morning dose. […] Additional details of the assays for analyzing p-HSP27 and cytokines are included in the Supplementary Information. Pharmacodynamics. PD data analysis was conducted using Microsoft Excel 2010 (Microsoft, Redmond, WA), Meso Scale Discovery Workbench® analysis software (Rockville, MD), and Phoenix WinNonlin, version 8.2.

[3] = Phase 2a RA study: safety (adverse events)
Description: Patient eligibility was assessed based on the following criteria: (i) a diagnosis of adult onset RA (ACR/EULAR classification criteria); (ii) DAS28-CRP≥3.2 defined as moderate to high disease activity; (iii) moderately to severely active RA defined by at least 4/28 tender and 4/28 swollen joints; (iv) hsCRP≥5 mg/L at screening; (v) definitive intra-articular synovitis or osteitis defined as a score of 1 or greater on a Hand-Wrist MM (using RAMRIS); (vi) stable MTX dose (defined as 7.5 mg to 25 mg weekly) for at least 4 weeks prior to the screening visit. […] Study medications were administered orally for 12 weeks. Patients were required to remain on a stable dose of MTX (7.5 mg to 25 mg/week) and a stable dose of folic or folinic acid (≥5 mg/week) for the duration of the study.
Patients attended clinic visits on Days 7, 14, 28, 42, 56, and 84 (±1 day) for safety, efficacy, PK, and PD assessments. The morning dose of study medication was administered in the clinic on each study visit day.
At the completion of 4 weeks of treatment (Day 28), each patient's safety data (e.g., AEs, laboratory values, vital signs, and ECGs) will be reviewed to ensure that the patient is tolerating the treatment regimen and is deemed suitable to continue treatment for the next 8 weeks.

[4] = most severe hand, baseline, 50 mg BID arm
[5] = most severe hand, week 12, 50 mg BID
[6] = other hand, baseline, 50 mg BID arm

Compound: Cc1cnc(-c2ccnc(C(C)(C)O)n2)cc1-n1c(C)cc(OCc2ncc(F)cc2F)c(Cl)c1=O (single isomer, unassigned) [ATI-450, 3-chloro-4-((3,5-difluoropyridin-2-yl)methoxy)-2′-(2-(2-hydroxypropan-2-yl)pyrimidin-4-yl)-5′,6-dimethyl-2H-[1,4′-bipyridin]-2-one]
- IC50 (TNF-α): 34.8 ± 5 nM
- joint destruction and synovitis by MRI ([1]; 50 mg BID plus MTX, 12 weeks): prevents the progression of joint destruction and provides significant improvement in synovitis
- Carlos Cartilage Loss, mean [1, 4]: 7.6
- RAMRIS Erosion Score, mean [1, 4]: 13.27
- RAMRIS Osteitis Score, mean [1, 4]: 2.93
- RAMRIS Synovitis Score, mean [1, 4]: 6.1
- Carlos Cartilage Loss, change from baseline, mean [1, 5]: 0.03
- Carlos Cartilage Loss, mean [1, 5]: 7.63
- RAMRIS Erosion Score, change from baseline, mean [1, 5]: 0.63
- RAMRIS Erosion Score, mean [1, 5]: 13.9
- RAMRIS Osteitis Score, change from baseline, mean [1, 5]: 0.9
- RAMRIS Osteitis Score, mean [1, 5]: 3.83
- RAMRIS Synovitis Score, change from baseline, mean [1, 5]: −0.17
- RAMRIS Synovitis Score, mean [1, 5]: 5.93
- Carlos Cartilage Loss, mean [1, 6]: 7.45
- RAMRIS Erosion Score, mean [1, 6]: 13.3
- RAMRIS Osteitis Score, mean [1, 6]: 2.4
- RAMRIS Synovitis Score, mean [1, 6]: 4.07
- Carlos Cartilage Loss, change from baseline, mean ([1]; other hand, week 12, 50 mg BID): 0
- Carlos Cartilage Loss, mean ([1]; other hand, week 12, 50 mg BID): 7.45
- RAMRIS Erosion Score, change from baseline, mean ([1]; other hand, week 12, 50 mg BID): −0.27
- RAMRIS Erosion Score, mean ([1]; other hand, week 12, 50 mg BID): 13.03
- RAMRIS Osteitis Score, change from baseline, mean ([1]; other hand, week 12, 50 mg BID): 1
- RAMRIS Osteitis Score, mean ([1]; other hand, week 12, 50 mg BID): 3.4
- RAMRIS Synovitis Score, change from baseline, mean ([1]; other hand, week 12, 50 mg BID): 0.33
- RAMRIS Synovitis Score, mean ([1]; other hand, week 12, 50 mg BID): 4.4
- IL-17 production in CD4+ cells (IL-17A): partially inhibits
- modulation of p-HSP27 and inhibition of production of TNF-α, IL-1β, IL-6, and IL-8 [2]: concentration-dependent and dose-dependent modulation
- tolerability ([3]; 50 mg BID plus MTX, 12 weeks): very well tolerated, with no serious or severe adverse events reported
- Abnormal ECG, Mild, n (%) ([3]; 50 mg BID, RA patients, n = 16): 1 (6.25)
- Abnormal ECG, Moderate, n (%) ([3]; 50 mg BID, RA patients, n = 16): 0
- Blood cholesterol increased, Mild, n (%) ([3]; 50 mg BID, RA patients, n = 16): 1 (6.25)
- Blood cholesterol increased, Moderate, n (%) ([3]; 50 mg BID, RA patients, n = 16): 0
- Blood creatine phosphokinase increased, Mild, n (%) ([3]; 50 mg BID, RA patients, n = 16): 0
- Blood creatine phosphokinase increased, Moderate, n (%) ([3]; 50 mg BID, RA patients, n = 16): 1 (6.25)
- Constipation, Mild, n (%) ([3]; 50 mg BID, RA patients, n = 16): 1 (6.25)
- Constipation, Moderate, n (%) ([3]; 50 mg BID, RA patients, n = 16): 0
- Ear infection, Mild, n (%) ([3]; 50 mg BID, RA patients, n = 16): 1 (6.25)
- Ear infection, Moderate, n (%) ([3]; 50 mg BID, RA patients, n = 16): 0
- Essential hypertension, Mild, n (%) ([3]; 50 mg BID, RA patients, n = 16): 0
- Essential hypertension, Moderate, n (%) ([3]; 50 mg BID, RA patients, n = 16): 1 (6.25)
- Hyperliidaemia, Mild, n (%) ([3]; 50 mg BID, RA patients, n = 16): 0
- Hyperliidaemia, Moderate, n (%) ([3]; 50 mg BID, RA patients, n = 16): 1 (6.25)
- Hypokalaemia, Mild, n (%) ([3]; 50 mg BID, RA patients, n = 16): 0
- Hypokalaemia, Moderate, n (%) ([3]; 50 mg BID, RA patients, n = 16): 1 (6.25)
- Ligament sprain, Mild, n (%) ([3]; 50 mg BID, RA patients, n = 16): 1 (6.25)
- Ligament sprain, Moderate, n (%) ([3]; 50 mg BID, RA patients, n = 16): 0
- Low density lipoprotein increased, Mild, n (%) ([3]; 50 mg BID, RA patients, n = 16): 1 (6.25)
- Low density lipoprotein increased, Moderate, n (%) ([3]; 50 mg BID, RA patients, n = 16): 0
- Mouth ulceration, Mild, n (%) ([3]; 50 mg BID, RA patients, n = 16): 1 (6.25)
- Mouth ulceration, Moderate, n (%) ([3]; 50 mg BID, RA patients, n = 16): 0
- Palpitations, Mild, n (%) ([3]; 50 mg BID, RA patients, n = 16): 1 (6.25)
- Palpitations, Moderate, n (%) ([3]; 50 mg BID, RA patients, n = 16): 0
- Rash erythematous, Mild, n (%) ([3]; 50 mg BID, RA patients, n = 16): 1 (6.25)
- Rash erythematous, Moderate, n (%) ([3]; 50 mg BID, RA patients, n = 16): 0
- Sinusitis, Mild, n (%) ([3]; 50 mg BID, RA patients, n = 16): 0
- Sinusitis, Moderate, n (%) ([3]; 50 mg BID, RA patients, n = 16): 1 (6.25)
- Skin abrasion, Mild, n (%) ([3]; 50 mg BID, RA patients, n = 16): 1 (6.25)
- Skin abrasion, Moderate, n (%) ([3]; 50 mg BID, RA patients, n = 16): 0
- Urinary tract infection, Mild, n (%) ([3]; 50 mg BID, RA patients, n = 16): 0
- Urinary tract infection, Moderate, n (%) ([3]; 50 mg BID, RA patients, n = 16): 2 (12.5)
- Ventricular extrasystoles, Mild, n (%) ([3]; 50 mg BID, RA patients, n = 16): 1 (6.25)
- Ventricular extrasystoles, Moderate, n (%) ([3]; 50 mg BID, RA patients, n = 16): 0
- White blood cell count increased, Mild, n (%) ([3]; 50 mg BID, RA patients, n = 16): 1 (6.25)
- White blood cell count increased, Moderate, n (%) ([3]; 50 mg BID, RA patients, n = 16): 0
